Assay results reported in US5573999A, “β-substituted cinnamic acid derivative” (BASF Aktiengesellschaft, priority 1991, dated 1996).

Assays:
[1] = tested on: mitochondrial respiration; assay: Inhibition of mitochondrial respiration (rate of reduction of cytochrome c in isolated mitochondria), house fly; type: biochemical, Musca domestica; conditions: DMSO control
From the text: (§1) It is also possible similarly to isolate mitochondria from other organisms, e.g. from the phytopathogenic fungus Drechslera sorokiniana (synonym: Helminthosporium sativum), from the dermatophyte Trichophyton mentagrophytes, which is a human pathogen, and, for example, from the house fly (Musca domestica) as insect or from the spider mite Tetranychus urticae.
(§2) Used as control is a mixture with the equivalent amount of pure DMSO. The inhibition at the concentration of agent in each case is then calculated as follows [formula] where ΔE is the change in extinction, at is the change in time, [formula] is the reaction rate for the control and [formula] is the reaction rate for the sample x.
(§3) The inhibition was determined in each case at a test substance concentration of 1.8/10^-5mol/l .

[2] = tested on: wheat mildew (Erysiphe graminis var. tritici); assay: Activity against wheat mildew on wheat seedlings; type: in vivo; conditions: aqueous dispersion containing 250 ppm active ingredient, assessed after 7 days
Method: Leaves of pot-grown wheat seedlings of the Fruhgold variety were sprayed with an aqueous liquor which contained 80% of active ingredient and 20% of emulsifier in dry matter and, 24 hours after the sprayed-on layer had dried, were dusted with spores of wheat mildew (Erysiphe graminis var. tritici). The test plants were then placed in a greenhouse at from 20° to 22° C. and from 75 to 80% relative humidity. The extent of mildew spread was assessed after 7 days.

[3] = tested on: mitochondrial respiration; assay: Inhibition of mitochondrial respiration (rate of reduction of cytochrome c in isolated mitochondria), yeast; type: biochemical, Saccharomyces cerevisiae; conditions: DMSO control
From the text: In order to determine the effect of the compounds according to the invention on mitochondrial respiration it is first necessary to isolate the mitochondria from the organisms being investigated. For this, in the case of the yeast Saccharomyces cerevisiae, the cells in a 30 to 40% strength suspension of the yeast in an aqueous solution of 0.6M mannitol+0.01M tris[hydroxymethyl]-aminomethane+0.002M disodium ethylenediaminetetraacetate (pH 6.8) are disrupted in a glass bead mill, and the extract is fractionated by differential centrifugation at 1000× g and 12000× g. The mitochondria are in the pellet from the 12000× g centrifugation.
as §2, §3

Plasmopara viticola = assay: Activity against Plasmopara viticola on potted vines; type: in vivo; conditions: aqueous dispersion containing 250 ppm active ingredient, infected 8 days after spraying
Method: Leaves of potted vines of the Muller Thurgau variety were sprayed with an aqueous liquor which contained 80% of active ingredient and 20% of emulsifier in dry matter. To assess the duration of action of the active ingredient, after the sprayed-on layer had dried the plants were placed in a greenhouse for 8 days. The leaves were then infected with a suspension of Plasmopara viticola zoospores. The vines were then placed first in a chamber saturated with water vapor at 24° C. for 48 hours and then in a greenhouse at from 20° to 30° C. for 5 days. After this, to speed up sporangiophore discharge, the plants were again placed in the humidity chamber for 16 hours. The extent of fungus attack was then assessed on the undersides of the leaves.

[4] = tested on: mitochondrial respiration; assay: Inhibition of mitochondrial respiration (rate of reduction of cytochrome c in isolated mitochondria), phytopathogenic fungus; type: biochemical, Drechslera sorokiniana; conditions: DMSO control
From the text: as §1, §2, §3

Structure (SMILES) | % inhibition of respiration at 1.8 × 10^-5 mol/l test substance, Musca domestica [1] | fungal attack, wheat mildew [2] | % inhibition of respiration at 1.8 × 10^-5 mol/l test substance, Saccharomyces cerevisiae [3] | fungal attack, Plasmopara viticola (Plasmopara viticola) | % inhibition of respiration at 1.8 × 10^-5 mol/l test substance, Drechslera sorokiniana [4]
COC(=O)/C=C(/OC)c1ccccc1COc1ccccc1C [Compound 1a.2] | 21% | 15% | 88% |  | 
COC(=O)/C=C(/OC)c1ccccc1COc1ccc(Oc2ccccc2)cc1 [Compound 1a.31] |  |  |  | 10% | 
CON=C(C)c1cc(C)c(OCc2ccccc2/C(=C\C(=O)OC)OC)cc1C [Compound 1a.61] | 97% | 15% | 98% | 10% | 
CON=Cc1cccc(OCc2ccccc2/C(=C\C(=O)OC)OC)c1 [Compound 1a.62] | 74% |  | 87% | 10% | 
C=CCON=Cc1cccc(OCc2ccccc2/C(=C\C(=O)OC)OC)c1 [Compound 1a.63] | 85% | 15% | 93% | 10% | 
COC(=O)/C=C(/OC)c1ccccc1COc1cccc(C=NOCc2ccccc2Cl)c1 [Compound 1a.64] | 93% |  | 94% |  | 98%
CC/C(=C/C(=O)OC)c1ccccc1COc1ccccc1C [Compound 1a.110] | 12% |  |  | 10% | 
COC(=O)/C=C(/OC)c1ccccc1COc1nc(-c2ccccc2)sc1C [Compound 1a.182] |  |  | 98% | 10% | 
COC(=O)/C=C(/OC)c1ccccc1/C=C\c1ccccc1[N+](=O)[O-] [Compound 1a.239] | 16% | 15% | 44% |  | 
COC(=O)/C=C(/OC)c1ccccc1/C=C/c1ccccc1C(F)(F)F [Compound 1a.243] | 89% |  | 99% |  | 94%
COC(=O)/C=C(/OC)c1ccccc1/C=C/c1cccc(C(F)(F)F)c1 [Compound 1a.245] | 91% | 15% | 98% |  | 
COC(=O)/C=C(/OC)c1ccccc1/C=C\c1cccc(C(F)(F)F)c1 [Compound 1a.246] | 81% | 15% | 84% |  | 
COC(=O)/C=C(/OC)c1ccccc1/C=C/c1ccc(-c2ccccc2)cc1 [Compound 1a.268, methyl 2-[2-(4-phenylphenyl)-(E)-ethenyl]-(E)-β-methoxycinnamate] | 95% |  | 95% |  | 97%
COC(=O)/C=C(/OC)c1ccccc1/C=C/c1ccco1 [Compound 1a.290] | 86% | 15% | 98% |  | 
COC(=O)/C=C(/OC)c1ccccc1/C=C\c1ccoc1 [Compound 1a.293] | 27% |  | 65% |  | 
COC(=O)/C=C(/OC)c1ccccc1/C=C/c1cccs1 [Compound 1a.294] | 95% | 15% | 98% |  | 

Structure (SMILES) | % inhibition of respiration at 1.8 × 10^-5 mol/l test substance, Musca domestica [1] | fungal attack, wheat mildew [2] | % inhibition of respiration at 1.8 × 10^-5 mol/l test substance, Saccharomyces cerevisiae [3] | fungal attack, Plasmopara viticola (Plasmopara viticola) | % inhibition of respiration at 1.8 × 10^-5 mol/l test substance, Drechslera sorokiniana [4]
COC(=O)/C=C(/OC)c1ccccc1/C=C\c1cccs1 [Compound 1a.295] | 76% |  | 94% |  | 
COC(=O)/C=C(/OC)c1ccccc1/C=C\c1ccsc1 [Compound 1a.297] | 22% |  | 70% |  | 
COC(=O)/C=C(/OC)c1ccccc1/C=C/c1cc(-c2ccc(Cl)cc2)no1 [Compound 1a.300] | 93% |  | 98% |  | 
COC(=O)/C=C(/OC)c1ccccc1/C=C\c1coc(-c2ccc(Cl)cc2)n1 [Compound 1a.303] | 86% |  | 98% |  | 
COC(=O)/C=C(/OC)c1ccccc1/C=C/c1ccn(-c2ccc(Cl)cc2)c1 [Compound 1a.304] | 96% | 15% | 97% |  | 
COC(=O)/C=C(/OC)c1ccccc1/C=C\c1ccn(-c2ccc(Cl)cc2)c1 [Compound 1a.305] | 39% |  | 30% |  | 
COC(=O)/C=C(/OC)c1ccccc1/C=C/c1csc(-c2ccccc2)n1 [Compound 1a.306] | 96% |  | 98% |  | 
COC(=O)/C=C(/OC)c1ccccc1/C=C\c1csc(-c2ccccc2)n1 [Compound 1a.307] | 71% |  | 58% |  | 
COC(=O)/C=C(/OC)c1ccccc1/C=C/c1nc(-c2ccc(F)cc2)no1 [Compound 1a.310] |  |  | 99% | 10% | 
COC(=O)/C=C(/OC)c1ccccc1/C=C/c1csc(-c2ccc(C)cc2)n1 [Compound 1a.312] |  |  | 99% | 10% | 
COC(=O)/C=C(/OC)c1ccccc1/C=C/c1cnn(-c2ccc(OC)cc2)c1 [Compound 1a.318] |  |  | 98% | 10% | 
COC(=O)/C=C(/OC)c1ccccc1/C=C\c1cnn(-c2ccc(Cl)cc2)c1 [Compound 1a.321] |  |  | 19% | 10% | 
COC(=O)/C=C(/OC)c1ccccc1/C=C\c1noc(-c2ccc(Cl)cc2)c1C [Compound 1a.323] |  |  | 99% | 10% | 
COC(=O)/C=C(/OC)c1ccccc1/C=C/c1csc(-c2ccc(F)cc2)n1 [Compound 1a.394, methyl 2-{2-[2-(4-fluorophenyl)-4-thiazolyl]-(E)-ethenyl}-(E)-β-methoxycinnamate] | 99% |  | 96% | 10% | 
COC(=O)/C=C(/OC)c1ccccc1/C=C/c1ccc(C(F)(F)F)cc1 [Compound 1a.519] | 89% |  | 97% |  | 
